In patent US12162869B2, “Type II crystalline topramezone sodium salt hydrate, preparation method therefor and use thereof” (Rotam Agrochem International Company Limited, priority 2022, dated 2024):

Tests used:
[1] = aqueous preparation; reported in US 2010075853 A; cited from earlier work
[2] = Product performance comparison: storage of preparation samples at 54° C. for 2 weeks; type: physicochemical; settings: stored at 54° C. for 2 weeks; characters before and after storage compared
Description: The preparation samples 1, 2, 3, 4, 5, 6, 7, 8, 9, 10, 11 and 12 prepared in Application examples 1-4 are stored at 54° C. for 2 weeks, respectively. The character changes of each sample before and after storage are compared.

[3] = Heat storage experiment of the preparation product; type: physicochemical
Description: In the preparation of solid preparations containing topramezone, the crystalline form I of the topramezone sodium salt can be better granulated compared with the anhydrous substance of the topramezone sodium salt. […] However, the preparation of type I topramezone sodium salt hydrate requires standing in water or a water-containing mixed solvent at −10° C.-15° C. for 10-48 h to complete the crystallization.

Compound: Cc1c(C(=O)c2cnn(C)c2[O-])ccc(S(C)(=O)=O)c1C1=NOCC1.[Na+] [topramezone sodium salt]
- Activity compared with topramezone acid [1]: equivalent to or even higher than that of topramezone acid

Compound: type II crystalline topramezone sodium salt hydrate
- Character changes [2]: stable after storage

Compound: Cc1c(C(=O)c2cnn(C)c2[O-])ccc(S(C)(=O)=O)c1C1=NOCC1.Cc1c(C(=O)c2cnn(C)c2[O-])ccc(S(C)(=O)=O)c1C1=NOCC1.O.O.O.O.O.[Na+].[Na+] [type I topramezone sodium salt hydrate, 2.5 water topramezone sodium salt hydrate]
- Stability of the preparation in heat storage, compared with the preparation based on the anhydrous substance [3]: more stable
